According to publication PMC2649369 (The Journal of neuroscience : the official journal of the …, 2007):

Experiments:
[1] = target: GABAA receptor α1Phe64 (α1Phe65 by human numbering) to Leu mutant; details: cited from earlier work
[2] = system: α1 65-3,4,5-F3-Phe β2 GABAA receptor; experiment: GABA concentration-response, voltage-clamp in oocytes, α1 65-3,4,5-F3-Phe; type: cell-based, human
[3] = system: α1β2 97-3,5-F2-Phe GABAA receptor; experiment: GABA concentration-response, voltage-clamp in oocytes, β2 97-3,5-F2-Phe; type: cell-based, human
[4] = system: α1β2 97-3,4,5-F3-Phe GABAA receptor; experiment: GABA concentration-response, voltage-clamp in oocytes, β2 97-3,4,5-F3-Phe; type: cell-based, human
[5] = system: α1β2 157-3,5-F2-Phe GABAA receptor; experiment: GABA concentration-response, voltage-clamp in oocytes, β2 157-3,5-F2-Phe; type: cell-based, human
[6] = system: α1β2 157-3,4,5-F3-Phe GABAA receptor; experiment: GABA concentration-response, voltage-clamp in oocytes, β2 157-3,4,5-F3-Phe; type: cell-based, human
[7] = system: α1β2 157-4-Me-Phe GABAA receptor; experiment: GABA concentration-response, voltage-clamp in oocytes, β2 157-4-Me-Phe; type: cell-based, human
[8] = system: α1β2 205-4-F-Phe GABAA receptor; experiment: GABA concentration-response, voltage-clamp in oocytes, β2 205-4-F-Phe; type: cell-based, human
[9] = system: α1β2 205-3,5-F2-Phe GABAA receptor; experiment: GABA concentration-response, voltage-clamp in oocytes, β2 205-3,5-F2-Phe; type: cell-based, human
[10] = system: α1β2 205-3,4,5-F3-Phe GABAA receptor; experiment: GABA concentration-response, voltage-clamp in oocytes, β2 205-3,4,5-F3-Phe; type: cell-based, human
[11] = system: GABAA receptors with phenylalanine mutations at β2Tyr157 and β2Tyr205; details: phenylalanine mutants vs unmutated; ref Amin and Weiss, 1993; cited from earlier work

CN1CCc2cc3c(cc2[C@H]1[C@@H]1OC(=O)c2c1ccc1c2OCO1)OCO3 [bicuculline]
change of IC50 on mutation [1]: increasing by similar amounts

NCCCC(=O)O [GABA]
nH (Hill coefficient) [2]: 1.5
nH (Hill coefficient) [3]: 1.1
nH (Hill coefficient) [4]: 1.9
nH (Hill coefficient) [5]: 2.0
nH (Hill coefficient) [6]: 1.7
nH (Hill coefficient) [7]: 0.8
nH (Hill coefficient) [8]: 1.9
nH (Hill coefficient) [9]: 1.9
nH (Hill coefficient) [10]: 2.5

CCCC(C)C1(CC)C(=O)NC(=O)NC1=O (centres unmarked) [pentobarbital]
functional response on activation of the receptors [11]: no change in functional response
